Each compound was assayed against biotinylated Avi-POLθ[2-894] (Homo sapiens (Human), UniProt O75417) (assay: POLθ ATPase assay (ADP-Glo)). Settings: POLθ ATPase, ADP-Glo; n=2; read-out: Biochemical ATPase ADPGlo IC50.
Chain of biotinylated Avi-POLθ[2-894] (O75417 2-894): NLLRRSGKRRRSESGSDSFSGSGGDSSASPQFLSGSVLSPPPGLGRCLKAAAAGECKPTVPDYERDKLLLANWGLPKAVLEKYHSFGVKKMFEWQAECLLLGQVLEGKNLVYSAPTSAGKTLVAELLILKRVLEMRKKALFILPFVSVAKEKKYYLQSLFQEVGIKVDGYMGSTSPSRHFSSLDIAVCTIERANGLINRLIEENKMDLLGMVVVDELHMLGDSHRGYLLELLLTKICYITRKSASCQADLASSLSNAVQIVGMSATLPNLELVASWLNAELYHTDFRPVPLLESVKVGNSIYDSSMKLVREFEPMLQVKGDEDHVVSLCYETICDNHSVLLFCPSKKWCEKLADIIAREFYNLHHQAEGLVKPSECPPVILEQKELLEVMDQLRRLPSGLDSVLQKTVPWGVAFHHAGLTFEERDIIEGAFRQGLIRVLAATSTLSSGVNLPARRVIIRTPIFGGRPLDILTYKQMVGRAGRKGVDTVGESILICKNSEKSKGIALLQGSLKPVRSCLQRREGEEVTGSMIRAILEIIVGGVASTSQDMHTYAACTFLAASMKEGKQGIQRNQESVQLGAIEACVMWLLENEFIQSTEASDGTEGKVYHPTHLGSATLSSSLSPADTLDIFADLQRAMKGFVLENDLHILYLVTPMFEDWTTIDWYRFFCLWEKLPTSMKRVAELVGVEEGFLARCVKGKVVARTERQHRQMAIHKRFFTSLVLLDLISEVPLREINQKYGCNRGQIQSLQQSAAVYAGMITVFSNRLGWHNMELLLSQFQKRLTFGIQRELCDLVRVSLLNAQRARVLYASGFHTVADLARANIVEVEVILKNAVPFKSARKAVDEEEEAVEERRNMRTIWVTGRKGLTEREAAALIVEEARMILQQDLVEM

| Structure (SMILES) | IC50 [nM] |
| --- | --- |
| COc1cnc(Cl)cc1-c1cc(C)ncc1C(=O)Nc1nc2c(s1)C[C@@H](C(=O)N[C@H]1CC[C@H]1O)CC2 | 150 to 900 |
| COc1cnc(Cl)cc1-c1cc(C)ncc1C(=O)Nc1nc2c(s1)CN(C(=O)c1ccc(Cl)c(C(F)F)c1)C2 | 1 to 15 |
| COc1cnnc(C(=O)N2Cc3nc(NC(=O)c4cnc(C)cc4-c4cc(Cl)ncc4OC)sc3C2)c1 | 15 to 50 |

The next lines start with the values.

| IC50 [nM] | Structure (SMILES) |
| --- | --- |
| 1 to 15 | COc1cncc(C(=O)N2Cc3nc(NC(=O)c4cnc(C)cc4-c4cc(Cl)ncc4OC)sc3C2)n1 [Example 528] |
| 15 to 50 | COc1cnc(Cl)cc1-c1cc(C)ncc1C(=O)Nc1nc2c(s1)CN(C(=O)c1ccc(C(F)(F)F)nc1OC)C2C (single isomer, unassigned) [Example 1037, (R or S)-2′-chloro-5′-methoxy-N-(5-(2-methoxy-6-(trifluoromethyl)nicotinoyl)-4-methyl-5,6-dihydro-4H-pyrrolo[3,4-d]thiazol-2-y])-6-methyl-[4,4′-bipyridine]-3-carboxamide] |
| 1 to 15 | COc1cnc(Cl)cc1-c1cc(C)ncc1C(=O)Nc1nc2c(s1)CN(C(=O)c1cnc(C(F)(F)F)nc1)C2 [Example 483] |
| 1 to 15 | COc1cnc(Cl)cc1-c1cc(C)ncc1C(=O)Nc1nc2c(s1)CN(C(=O)[C@H]1CC[C@](O)(C(F)(F)F)C1)C2 [Example 736, 2′-chloro-N-(S-((1S,3R)-3-hydroxy-3-(trifluoromethyl)cyclopentane-1-carbonyl)-5,6-dihydro-4H-pyrrolo[3,4-d]thiazol-2-yl)-5′-methoxy-6-methyl-[4,4′-bipyridine]-3-carboxamide] |
| 50 to 150 | COc1cnc(Cl)cc1-c1cc(C)ncc1C(=O)Nc1nc2c(s1)C[C@H](C(=O)N1CC(O)C1)CC2 |
| 1 to 15 | COc1cnc(Cl)cc1-c1cc(C)ncc1C(=O)Nc1nc2c(s1)CN(C(=O)c1cccc3cncn13)C2 |
| 1 to 15 | COc1cnc(Cl)cc1-c1cc(C)ncc1C(=O)Nc1nc2c(s1)CN(C(=O)c1nc(C(F)(F)F)co1)C2 |
| 1 to 15 | COc1cnc(Cl)cc1-c1cc(C)ncc1C(=O)Nc1nc2c(s1)CN(C(=O)c1cccc(OC(F)(F)F)n1)C2 |

Same assay, conditions: n=2; read-out: Biochemical ATPase ADPGlo IC50

| Structure (SMILES) | IC50 [nM] |
| --- | --- |
| COc1ccccc1-c1cc(C)ncc1C(=O)Nc1nc2c(s1)CN(C(=O)c1ccnn1C)C2 | 50 to 150 |
| COc1ccccc1-c1cc(C)ncc1C(=O)Nc1nc2c(s1)CC(c1ccc(Cl)cc1)CC2 (stereo not drawn) [listing 1 of 2 here] | 150 to 900 |
| COc1ccccc1-c1cc(C)ncc1C(=O)Nc1nc2c(s1)CN(S(=O)(=O)N1CCCC1)C2 | 50 to 150 |
| COc1cnc(Cl)cc1-c1cc(C)ncc1C(=O)Nc1nc2c(s1)CN(C(=O)N1CC[C@@H](O)C1)C2 [Example 129] | 1 to 15 |
| COc1ccccc1-c1cc(C)ncc1C(=O)Nc1nc2c(s1)CN(C(=O)C1(C#N)CCOCC1)C2 | ≥ 900 |
| COc1ccccc1-c1cc(C)ncc1C(=O)Nc1nc2c(s1)CN(C(=O)N(C)C)C2 | ≥ 900 |
| COc1ccc(C#N)cc1-c1cc(C)ncc1C(=O)Nc1nc2c(s1)CN(C(=O)c1cccnc1)CC2 | 150 to 900 |
| COc1ccccc1-c1cc(C)ncc1C(=O)Nc1nc2c(s1)CN(C(=O)C1CCCCO1)C2 (stereo not drawn) [Example 324, 4-(2-methoxyphenyl)~6-methyl-N-(5-{3-oxabicyclo[3.1.0]hexane-6-carbonyl}-4H,5H,6H-pyrrolo[3,4-d][1,3]thiazol-2-yl)pyridine-3-carboxamide] | 150 to 900 |
| COc1cnc(Cl)cc1-c1cc(C)ncc1C(=O)Nc1nc2c(s1)C[C@H](C(=O)NC1CCC1)CC2 (single isomer, unassigned) [Example 27, (R or S)-2-(2′-chloro-5′-methoxy-6-methyl-[4,4′-bipyridine]-3-carboxamido)-N-cyclobutyl-4,5,6,7-tetrahydrobenzo[d]thiazole-6-carboxamide] | 15 to 50 |
| COc1ccccc1-c1cc(C)ncc1C(=O)Nc1nc2c(s1)CN(C(=O)C1CCOC1)C2 (stereo not drawn) | 150 to 900 |
| COc1ccc(C#N)cc1-c1cc(C)ncc1C(=O)Nc1nc2c(s1)CN(S(=O)(=O)N1CCC1)C2 | 1 to 15 |
| COc1ccccc1-c1cc(C)ncc1C(=O)Nc1nc2c(s1)CN(C(=O)c1ccc(=O)n(C)c1)C2 | 150 to 900 |
| COc1ccc(C#N)cc1-c1cc(C)ncc1C(=O)Nc1nc2c(s1)CN(C(=O)C1CCOC1)CC2 (stereo not drawn) | 150 to 900 |
| COc1cnc(Cl)cc1-c1cc(C)ncc1C(=O)Nc1nc2c(s1)CN(C(=O)[C@H]1CCOC1)C2 | 15 to 50 |
| COc1cnc(Cl)cc1-c1cc(C)ncc1C(=O)Nc1nc2c(s1)CN(C(=O)[C@@H]1C[C@@H]1CO)C2 [Example 107, 2′-chloro-N-(5-((1R,2S)-2-(hydroxymethyl)cyclopropane-1-carbonyl)-5,6-dihydro-4H-pyrrolo[3,4-d]thiazol-2-yl)-5′-methoxy-6-methyl-[4,4′-bipyridine]-3-carboxamide] | 50 to 150 |
| COc1ccccc1-c1cc(C)ncc1C(=O)Nc1nc2c(s1)CN(C(=O)c1ncn(C)n1)C2 | 50 to 150 |
| COc1cnc(Cl)cc1-c1cc(C)ncc1C(=O)Nc1nc2c(s1)CN(C(=O)c1ncn(C)n1)C2 [Example 50, 2′-chloro-5′-methoxy-6-methyl-N-(5-(1-methyl-1H-1,2,4-triazole-3-carbonyl)-5,6-dihydro-4H-pyrrolo[3,4-d]thiazol-2-yl)-[4,4′-bipyridine]-3-carboxamide] | 1 to 15 |
| COc1ccc(C#N)cc1-c1cc(C)ncc1C(=O)Nc1nc2c(s1)CN(C(=O)c1ccccn1)CC2 [Example 247] | 150 to 900 |
| COc1cnc(Cl)cc1-c1cc(C)ncc1C(=O)Nc1nc2c(s1)CN(C(=O)C1CC(N(C)C)C1)C2 (stereo not drawn) [Example 43, 2′-chloro-N-(5-(3-(dimethylamino)cyclobutane-1-carbonyl)-5,6-dihydro-4H-pyrrolo[3,4-d]thiazol-2-yl)-5′-methoxy-6-methyl-[4,4′-bipyridine]-3-carboxamide] | 150 to 900 |
| COc1ccccc1-c1cc(C)ncc1C(=O)Nc1nc2c(s1)CC(Oc1ccccc1)CC2 (stereo not drawn) | ≥ 900 |
| COc1ccc(C#N)cc1-c1cc(C)ncc1C(=O)Nc1nc2c(s1)CN(C1CC1)C2 (racemic) [Example 165] | 50 to 150 |
| COc1ccccc1-c1cc(C)ncc1C(=O)Nc1nc2c(s1)CN(C(=O)c1ncccc1C#N)C2 | 50 to 150 |
| COc1ccccc1-c1cc(C)ncc1C(=O)Nc1nc2c(s1)CN(S(=O)(=O)C1CCC1)C2 | 15 to 50 |

More lines, now with the values ahead:

| IC50 [nM] | Structure (SMILES) |
| --- | --- |
| 150 to 900 | COc1ccccc1-c1cc(C)ncc1C(=O)Nc1nc2c(s1)CN(C(=O)C1COC1)C2 [Example 256] |
| ≥ 900 | COc1ccccc1-c1cc(C)ncc1C(=O)Nc1nc2c(s1)COCC2 |
| ≥ 900 | COc1ccccc1-c1cc(C)ncc1C(=O)Nc1nc2c(s1)CN(C(=O)CN1CCCC1=O)C2 |
| 150 to 900 | COc1ccccc1-c1cc(C)ncc1C(=O)Nc1nc2c(s1)CN(C(=O)c1cccnn1)C2 [Example 342, 4-(2-methoxyphenyl)~6-methyl-N-[5-(1-methyl-6-oxo-1,6-dihydropyridine-3-carbonyl)-4H,5H,6H-pyrrolo[3,4-d][1,3]thiazol-2-yl]pyridine-3-carboxamide] |
| 50 to 150 | COc1ccccc1-c1cc(C)ncc1C(=O)Nc1nc2c(s1)CC(Nc1ccccc1)CC2 (stereo not drawn) |
| ≥ 900 | COc1ccc(C#N)cc1-c1cc(C)ncc1C(=O)Nc1nc2c(s1)CN(C(=O)[C@H]1CCCOC1)CC2 |
| 150 to 900 | COC(=O)N1Cc2nc(NC(=O)c3cnc(C)cc3-c3ccccc3OC)sc2C1 |
| 15 to 50 | COc1cn2cncc2cc1-c1cc(C)ncc1C(=O)Nc1nc2c(s1)CN(C(=O)[C@H]1C[C@H](OC(F)(F)F)C1)C2 [Example 22, 4-(6-methoxyimidazo[1,5-a]pyridin-7-yl)-6-methyl-N-(5-((1r,3r)-3-(trifluoromethoxy)cyclobutane-1-carbonyl)-5,6-dihydro-4H-pyrrolo[3,4-d]thiazol-2-yl)nicotinamide] |
| 50 to 150 | CNS(=O)(=O)N1Cc2nc(NC(=O)c3cnc(C)cc3-c3ccccc3OC)sc2C1 |
| 50 to 150 | COc1ccccc1-c1cc(C)ncc1C(=O)Nc1nc2c(s1)CN(C(=O)C1CCC1)C2 |
| 1 to 15 | COc1cnc(Cl)cc1-c1cc(C)ncc1C(=O)Nc1nc2c(s1)CN(C(=O)c1ncccn1)C2 [Example 100, 2′-chloro-5′-methoxy-6-methyl-N-(5-(pyrimidine-2-carbonyl)-5,6-dihydro-4H-pyrrolo[3,4-d]thiazol-2-yl)-[4,4′-bipyridine]-3-carboxamide] |
| 50 to 150 | COc1cnc(Cl)cc1-c1cc(C)ncc1C(=O)Nc1nc2c(s1)CN(C(=O)N1CC(O)C1)C2 [Example 149] |
| 50 to 150 | COc1ccccc1-c1cc(C)ncc1C(=O)Nc1nc2c(s1)CC(c1ccc(Cl)cc1)CC2 (stereo not drawn) [listing 2 of 2 here] |
| ≥ 900 | COc1ccccc1-c1cc(C)ncc1C(=O)Nc1nc2c(s1)CNC2 |
| 150 to 900 | COc1ccccc1-c1cc(C)ncc1C(=O)Nc1nc2c(s1)CN(C(=O)C1CC(=O)N1)C2 (racemic) |
| 150 to 900 | COc1cnc(Cl)cc1-c1cc(C)ncc1C(=O)Nc1nc2c(s1)CC(C(=O)NC1CC1)CC2 (single isomer, unassigned) [Example 154] |
| 150 to 900 | COc1ccc(C#N)cc1-c1cc(C)ncc1C(=O)Nc1nc2c(s1)CN(C(=O)C1CCOCC1)CC2 |
| 50 to 150 | COc1cnc(Cl)cc1-c1cc(C)ncc1C(=O)Nc1nc2c(s1)C[C@@H](NC(=O)C1CC1)CC2 [Example 200] |
| 1 to 15 | COc1cnc(Cl)cc1-c1cc(C)ncc1C(=O)Nc1nc2c(s1)CN(C(=O)c1cnn(C3CC3)c1)C2 [Example 80, 2′-chloro-N-(5-(1-cyclopropyl-1H-pyrazole-4-carbonyl)-5,6-dihydro-4H-pyrrolo[3,4-d]thiazol-2-yl)-5′-methoxy-6-methyl-[4,4′-bipyridine]-3-carboxamide] |
| 1 to 15 | COc1cnc(Cl)cc1-c1cc(C)ncc1C(=O)Nc1nc2c(s1)CN(C(=O)c1nn(C)cc1C)C2 [Example 65, 2′-chloro-N-(5-(1,4-dimethyl-1H-pyrazole-3-carbonyl)-5,6-dihydro-4H-pyrrolo[3,4-d]thiazol-2-yl)-5′-methoxy-6-methyl-[4,4′-bipyridine]-3-carboxamide] |
| 150 to 900 | COc1ccccc1-c1cc(C)ncc1C(=O)Nc1nc2c(s1)CN(C(=O)c1cc(OC)n(C)n1)C2 |
| 150 to 900 | COc1ccccc1-c1cc(C)ncc1C(=O)Nc1nc2c(s1)CN(C(=O)c1cocn1)C2 |
| 1 to 15 | COc1ccc(C#N)cc1-c1cc(C)ncc1C(=O)Nc1nc2c(s1)CN(S(=O)(=O)c1ccc(C)cn1)C2 |

Reference: patent publication US20250230171A1 (MOMA Therapeutics, Inc., priority 2023, published 2025)
